Assays:
purified rat liver HDAC = purified rat liver HDAC inhibition; format: biochemical; conditions: relative to compound 17
Protocol: (§1) The effect of compounds on the enzymatic activity of purified recombinant human HDAC-1, -2, -3, -6, and -8 activity and of purified rat liver HDAC was examined by measuring the deacetylation of synthetic peptides in various preparations of HDACs. HDAC assays were performed using a two-step enzymatic reaction where enzyme activity is correlated to the release of […] (AMC). AMC fluorescence is measured in a fluorescent plate reading using λex380 nm and λen440 nm.
(§2) The reaction was allowed to proceed for 40 min at 37° C., after which developer solution (0.5% trypsin, 10 μM trichostatin A (TSA)) was added to obtain a final concentration of 0.1% trypsin, 2 μM TSA. After 30 minutes at room temperature, the amount of free fluorogenic AMC was measured as described above.

[1] = system: IMR-32 neuroblastoma cells; assay: cytotoxicity, cell survival (CellTiterGlo) in IMR-32; format: cell-based; conditions: relative to compounds 17 and 8
Protocol: (§3) The cytotoxicity of compounds was examined and directly compared to compound 17, by measuring cell survival of clonal tumor cell lines IMR-32, BE2C (neuroblastoma), as well as MDA-MB-231, BT20, HCC-38 (Basal) and MCF7 (luminal) breast cancer cells (ATCC). Cells were cultured in phenol red-free RPMI medium supplemented with 10% FBS and 1 mM Ala-Glu. Typically, 10,000-20,000 cells/well were plated in a 96 well plate (Costar 3197). Cells were exposed to compounds or vehicle (1% DMSO final). Cells were maintained in the presence of compound for four or five days. Media and compounds were renewed every 48 hours. Cell survival was measured using the luminescence CellTiterGlo kit (Promega Corporation) and expressed as relative light unit as fold over DMSO.

RXR = assay: RXR-mediated transcription, RXRE luciferase reporter in MCF7 cells; format: cell-based
Source text: (§4) The effect of various compounds of the invention on RAR-mediated transcription in MCF7 breast cancer cells was examined by measuring their effect on the transcription of a luciferase reporter gene under the control of a TK promoter placed downstream of a RAR response element. In addition, the effect of the compounds on the closely related RXR-mediated transcription was examined by measuring their effect on the transcription of a luciferase reporter gene under the control of a TK promoter placed downstream of a RXR response element.
(§5) Typically, 10,000 cells were plated in 96 wells plates in phenol red-free RPMI medium supplemented with 10% charcoal-stripped Fetal Bovine Serum. After 24 hours, cells were transfected with 0.1 μg of luciferase reporter plasmid and 0.01 μg of a reporter plasmid expressing renilla luciferase (RLuc) gene under the control of a SV40 promoter, using Fugene 6 transfection reagent (0.5 μl/well Promega Corporation). Cells were treated in triplicate with compounds or vehicle (DMSO) for 24 hours. Luciferase and renilla luciferase activities were measured using Dual-Glo reagent (Promega Corporation). Luciferase activity was normalized in each well for renilla activity.

[2] = biological target: purified recombinant human HDAC-1 (Homo sapiens, UniProt Q13547); assay: HDAC-1 enzymatic inhibition (AMC fluorogenic peptide deacetylation); format: biochemical; conditions: up to
Protocol: as §1, §2

[3] = biological target: T1, purified recombinant human HDAC-8 (Homo sapiens, UniProt Q9BY41); assay: HDAC-8 enzymatic inhibition (Boc-Lys(Tfa)-AMC / HDAC-Glo I/II); format: biochemical; conditions: relative to compound 17
T1 construct: purchased Cayman Chem 10009465 (AMC assay (so in the source)); 19380 (HDAC-Glo assay)
T1 sequence (Q9BY41 1-377): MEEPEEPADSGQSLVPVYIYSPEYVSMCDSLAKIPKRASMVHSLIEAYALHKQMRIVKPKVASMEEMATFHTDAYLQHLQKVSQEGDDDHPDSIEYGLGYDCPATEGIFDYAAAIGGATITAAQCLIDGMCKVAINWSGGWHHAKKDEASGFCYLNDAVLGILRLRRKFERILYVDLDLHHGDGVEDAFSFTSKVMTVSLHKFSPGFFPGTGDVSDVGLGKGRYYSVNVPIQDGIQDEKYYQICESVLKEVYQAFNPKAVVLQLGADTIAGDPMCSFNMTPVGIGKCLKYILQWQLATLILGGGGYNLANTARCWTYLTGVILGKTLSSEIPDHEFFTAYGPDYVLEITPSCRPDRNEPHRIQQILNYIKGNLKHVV
Protocol: as §1
HDAC-8, HDAC-9, HDAC-10 and HDAC-11 were assayed using HDAC-Glo™ I/II Kit (Promega Corporation G6421) in a total volume of 110 μl following the manufacturer's instructions.
as §2

RAR = assay: RAR-mediated transcription, RARE-tk luciferase reporter in MCF7 cells; format: cell-based
Source text: as §4, §5

[4] = system: BE-2C neuroblastoma cells; assay: cytotoxicity, cell survival (CellTiterGlo) in BE-2C; format: cell-based; conditions: BE-2C cells
Protocol: as §3

[5] = system: MDA-MB-231 breast cancer cells; assay: cytotoxicity, cell survival (CellTiterGlo) in MDA-MB-231; format: cell-based; conditions: MDA-MB-231 cells
Protocol: as §3

C2Cl2 cells = assay: myoblast fusion in long term C2Cl2 cultures (MHC immunocytochemistry); format: cell-based; conditions: long-term culture, suboptimal RPMI media with 2% horse serum
Protocol: The effect of compounds on myoblast fusion was examined in C2Cl2 cells maintained in RPMI media supplemented with 2% horse serum. C2Cl2 myoblastic cells where purchased from the American Type Culture Collection (ATCC) and maintained undifferentiated in RPMI media (Corning) supplemented with 2 mM L-Alanine-L-Glutamine (ATCC) and 1 mM pyruvate (Corning). Undifferentiated cells where maintained below 70% confluence. For long term cultures and compound treatment, cells where plated at high density CellBIND Culture Dishes (corning 3294, 3296, 3337) and in RPMI supplemented with 2% Horse Serum (Gibco) and 2 mM L-Alanine-L-Glutamine (ATCC) and 1 mM pyruvate (Corning). Compounds were dissolved in DMSO at 1000 time the final concentration and diluted 1-in-1000 in the media covering the cells. Media and compounds were changed daily. For immunocytochemistry, cells were fixed in 2% PFA in HBSS for 10 minutes and left in HBSS at 4° under humidified atmosphere and processed for immunocytochemistry. For myosin heavy chain detection (MHC), cells were first incubated in 100 ul-1 ml 0.15 M Glycine in DPBS for 10 minutes, rinse with DPBS. 100 ul-1 ml 0.5% Triton-X in DPBS was added for 10 minutes, rinsed with DPBS, and followed by incubation with 100 ul blocking agent (10% goat serum in DPBS) for 30 min at room temperature. MF20 primary antibody in 10% goat serum in DPBS was added at 1/60 dilution for 30 min at room temperature and rinsed three times with 100 ul DPBS. IgG2b goat anti mouse secondary antibody (Jackson Immuno-Research) was added at 1:1000 in 10% goat serum in DPBS for exactly 30 min at room temperature then rinsed 3 times with 100 ul DPBS. A final rinse in H2O was performed and cells were covered with two drops of Elvanol and cover gently with cover slip and allowed to dry in the dark for 24-48 hours.

[6] = system: Lys40 acetylated alpha tubulin; assay: intracellular acetylation of alpha-tubulin in BE-2C cells; format: cell-based; conditions: 16 hours
Protocol: The effect of certain compounds on intracellular acetylation of target proteins was tested in high risk neuroblastoma cells, BE-2C and IMR-32 cells.
BE-2C cells were grown to confluence in phenol-red-free RPMI media supplemented with 10% FBS and 2.5 mM Ala-Glu. […] Total and Lys 40 acetylated alpha tubulin were detected using specific antibodies.
Beta actin, total and Lys382 acetylated p53, and Lys40 acetylated alpha, and total tubulin were detected using antibodies (Cell Signaling #8557, #2524 #2525, #12152 and #2144 respectively) using manufacturer recommended conditions.

Chain of purified recombinant human HDAC-1 (Q13547 whole entry): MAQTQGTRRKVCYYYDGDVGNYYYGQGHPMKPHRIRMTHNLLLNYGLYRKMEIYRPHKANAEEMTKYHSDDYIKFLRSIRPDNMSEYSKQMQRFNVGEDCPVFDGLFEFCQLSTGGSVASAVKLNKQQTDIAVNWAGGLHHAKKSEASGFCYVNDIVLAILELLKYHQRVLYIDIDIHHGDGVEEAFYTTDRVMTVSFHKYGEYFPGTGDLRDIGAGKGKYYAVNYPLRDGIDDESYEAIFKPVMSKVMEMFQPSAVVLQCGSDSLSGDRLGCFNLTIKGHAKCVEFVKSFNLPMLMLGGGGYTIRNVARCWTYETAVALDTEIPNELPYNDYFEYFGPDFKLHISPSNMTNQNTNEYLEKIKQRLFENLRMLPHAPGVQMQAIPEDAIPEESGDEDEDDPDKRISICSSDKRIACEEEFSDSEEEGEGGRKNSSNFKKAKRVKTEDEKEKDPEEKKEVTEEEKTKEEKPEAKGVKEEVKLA

CC1(C)CCC(C)(C)c2cc(-c3c[nH]c4ccc(C(=O)NO)cc34)ccc21 [Compound 5]
times more potent than compound 17 in inhibition of purified rat hepatic HDAC (purified rat liver HDAC): six
fold more potent than compounds 17 and 8 in killing IMR-32 cells [1]: ten
transcriptional activation of RXR / RXRE-promoter (RXR): none
maximal inhibition of HDAC-1 activity [2]: ~50%
times/fold more potent than compound 17 in HDAC-8 inhibition [3]: over 200

CC1(C)CCC(C)(C)c2cc(-c3ccc4nc(C(=O)NO)ccc4c3)ccc21 [Compound 8]
times more potent than compound 17 in inhibition of purified rat hepatic HDAC (purified rat liver HDAC): at least three
transcriptional activation of RXR / RXRE-promoter (RXR): none
RARE-dependent luciferase expression (RAR): activated

CC1(C)CCC(C)(C)c2cc(-c3c[nH]c4cc(C(=O)NO)ccc34)ccc21 [Compound 18]
cytotoxic potency compared with compound 17, SAHA, Ricolinistat [4]: more potent than compound 17, SAHA or Ricolinistat
cytotoxic potency compared with compound 17, SAHA, Ricolinistat [5]: more potent than compound 17, SAHA or Ricolinistat
transcriptional activation of RXR / RXRE-promoter (RXR): none
maximal inhibition of HDAC-1 activity [2]: ~50%
RARE-dependent luciferase expression (RAR): activated

CC1(C)CCC(C)(C)c2cc(-c3ccc4cc(C(=O)NO)[nH]c4c3)ccc21 [Compound 19]
transcriptional activation of RXR / RXRE-promoter (RXR): none
RARE-dependent luciferase expression (RAR): activated

CC1(C)CCC(C)(C)c2cc(-c3ccc4cc(C(=O)NO)cnc4c3)ccc21 [Compound 20, N-hydroxy-7-(5,5,8,8-tetramethyl-5,6,7,8-tetrahydronaphthalen-2-yl)quinoline-3-carboxamide]
transcriptional activation of RXR / RXRE-promoter (RXR): none
RARE-dependent luciferase expression (RAR): activated

CC1(C)CCC(C)(C)c2cc(-c3ccc4ccc(C(=O)NO)cc4c3)ccc21 [Compound 21, N-hydroxy-5′,5′,8′,8′,-tetramethyl-5′,6′,7′,8′-tetrahydro-[2,2′-binaphthalene]-7-carboxamide]
transcriptional activation of RXR / RXRE-promoter (RXR): none

C/C(=C\c1ccc(C(=O)NO)cc1)c1ccc2c(c1)C(C)(C)CCC2(C)C [Compound B, (E)-N-hydroxy-4-(2-(5,5,8,8-tetramethyl-5,6,7,8-tetrahydronaphthalen-2-yl)prop-1-en-1-yl)benzamide]
fusion of single cells into multinucleated C2Cl2 myotubes (C2Cl2 cells): enhances the fusion

O=C(CCCCCCNC(=O)c1cnc(N(c2ccccc2)c2ccccc2)nc1)NO [Ricolinostat]
Lysin (K) 40 alpha-Tubulin acetylation ([6]; 2 uM): pronounced Lysin (K) 40 alpha-Tubulin acetylation

O=C(CCCCCCC(=O)Nc1ccccc1)NO [SAHA, suberoylanilide hydroxamic acid]
Lysin (K) 40 alpha-Tubulin acetylation ([6]; 2 uM): pronounced Lysin (K) 40 alpha-Tubulin acetylation

CC(/C=C/C(=O)NO)=C\[C@@H](C)C(=O)c1ccc(N(C)C)cc1 [TSA, trichostatin A]
Lysin (K) 40 alpha-Tubulin acetylation ([6]; 1 uM): pronounced Lysin (K) 40 alpha-Tubulin acetylation
